Reference: US20260262643A1, “HERBICIDAL BENZOXAZINES” (FMC CORPORATION, priority 2022, published 2026)

Legend:
corn [1] = test: Test A preemergence; assay type: in vivo, Zea mays; conditions: 0 to 100 scale
Summary of the method: (§1)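 Plants were grown in loam and sand and treated preemergence or postemergence (one- to two-leaf stage, 2–10 cm) with compound in solvent plus surfactant. Response was scored against untreated controls after 10 greenhouse days, where 0 means no effect and 100 complete control.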

soybean [2] = test: Test A postemergence; assay type: in vivo, Glycine max; conditions: postemergence, 10 days
Summary of the method: as §1

pigweed, palmer [3] = test: Test A postemergence; assay type: in vivo, Amaranthus palmeri; conditions: postemergence, 10 days
Summary of the method: as §1

pigweed, palmer [4] = test: Test A preemergence; assay type: in vivo, Amaranthus palmeri; conditions: 0 to 100 scale
Summary of the method: as §1

kochia [5] = test: Test A preemergence; assay type: in vivo, Bassia scoparia; conditions: 0 to 100 scale
Summary of the method: as §1

oat, wild [6] = test: Test A preemergence; assay type: in vivo, Avena fatua; conditions: 0 to 100 scale
Summary of the method: as §1

ragweed [7] = test: Test A postemergence; assay type: in vivo, Ambrosia artemisiifolia; conditions: postemergence, 10 days
Summary of the method: as §1

blackgrass [8] = test: Test A preemergence; assay type: in vivo, Alopecurus myosuroides; conditions: 0 to 100 scale
Summary of the method: as §1

ryegrass, Italian [9] = test: Test A preemergence; assay type: in vivo, Lolium multiflorum; conditions: 0 to 100 scale
Summary of the method: as §1

foxtail, giant [10] = test: Test A preemergence; assay type: in vivo, Setaria faberi; conditions: 0 to 100 scale
Summary of the method: as §1

foxtail, giant [11] = test: Test A postemergence; assay type: in vivo, Setaria faberi; conditions: postemergence, 10 days
Summary of the method: as §1

soybean [12] = test: Test A preemergence; assay type: in vivo, Glycine max; conditions: 0 to 100 scale
Summary of the method: as §1

ducksalad = test: Test B flooded paddy test; assay type: in vivo, Heteranthera limosa; conditions: 250 g ai/ha, Flood, 13 days, 0 to 100 scale (0 no effect, 100 complete control)
Summary of the method: (§2)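 Species grown to 2-leaf stage; pots flooded 3 cm above soil and compound applied directly to paddy water, depth maintained throughout. After 13 days in greenhouse, plants visually rated against controls on 0–100 scale (0 no effect, 100 complete control); dash means no result.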

corn [13] = test: Test A postemergence; assay type: in vivo, Zea mays; conditions: postemergence, 10 days
Summary of the method: as §1

ragweed [14] = test: Test A preemergence; assay type: in vivo, Ambrosia artemisiifolia; conditions: 0 to 100 scale
Summary of the method: as §1

galium = test: Test A postemergence; assay type: in vivo, Galium aparine; conditions: postemergence, 10 days
Summary of the method: as §1

kochia [15] = test: Test A postemergence; assay type: in vivo, Bassia scoparia; conditions: postemergence, 10 days
Summary of the method: as §1

sedge, umbrella = test: Test B flooded paddy test; assay type: in vivo, Cyperus difformis; conditions: 250 g ai/ha, Flood, 13 days, 0 to 100 scale (0 no effect, 100 complete control)
Summary of the method: as §2

wheat [16] = test: Test A preemergence; assay type: in vivo, Triticum aestivum; conditions: 0 to 100 scale
Summary of the method: as §1

ryegrass, Italian [17] = test: Test A postemergence; assay type: in vivo, Lolium multiflorum; conditions: postemergence, 10 days
Summary of the method: as §1

oat, wild [18] = test: Test A postemergence; assay type: in vivo, Avena fatua; conditions: postemergence, 10 days
Summary of the method: as §1

barnyardgrass [19] = test: Test A preemergence; assay type: in vivo, Echinochloa crusgalli; conditions: visual injury after 10 days, 0 to 100 scale, 0 is no effect, 100 is complete control
Summary of the method: as §1

wheat [20] = test: Test A postemergence; assay type: in vivo, Triticum aestivum; conditions: postemergence, 10 days
Summary of the method: as §1

horseweed = test: Test A postemergence; assay type: in vivo, Erigeron canadensis; conditions: postemergence, 10 days
Summary of the method: as §1

barnyardgrass [21] = test: Test B flooded paddy test; assay type: in vivo, Echinochloa crus-galli; conditions: 250 g ai/ha, Flood, 13 days, 0 to 100 scale (0 no effect, 100 complete control)
Summary of the method: as §2

rice = test: Test B flooded paddy test; assay type: in vivo, Oryza sativa; conditions: 250 g ai/ha, Flood, 13 days, 0 to 100 scale (0 no effect, 100 complete control)
Summary of the method: as §2

blackgrass [22] = test: Test A postemergence; assay type: in vivo, Alopecurus myosuroides; conditions: postemergence, 10 days
Summary of the method: as §1

barnyardgrass [23] = test: Test A postemergence; assay type: in vivo, Echinochloa crusgalli; conditions: postemergence, 10 days
Summary of the method: as §1

[24] = 500 g ai/ha, visual injury after 10 days, 0 is no effect, 100 is complete control
[25] = 125 g ai/ha, 0 to 100 scale, 0 no effect, 100 complete control
[26] = 500 g ai/ha, visual injury, 0 to 100 scale (0 no effect, 100 complete control)

`CC(C)c1ncn(-c2ccc(OC(F)F)c(C(=O)N3C[C@H](C)Oc4c(Cl)cccc43)c2)n1` [Compound 143] was tested, and the “Plant response rating, Corn” value (corn [1]; 125 g ai/ha) was 10, the “Plant response rating, Corn” value (corn [1]; [24]) was 40 and the “Soybean plant response rating” value (soybean [2]; [25]) was 100. For the same compound, the “Plant response rating, Soybean” value (soybean [2]; [26]) was 100, the “Pigweed, Palmer plant response rating” value (pigweed, palmer [3]; [25]) was 60 and the “Plant response rating, Pigweed, Palmer” value (pigweed, palmer [3]; [26]) was 80. The “Plant response rating, Pigweed, Palmer” value (pigweed, palmer [4]; 125 g ai/ha) was 100, the “Plant response rating, Pigweed, Palmer” value (pigweed, palmer [4]; [24]) was 100 and the “Plant response rating, Kochia” value (kochia [5]; 125 g ai/ha) was 80. For the same compound, the “Plant response rating, Kochia” value (kochia [5]; [24]) was 100, the “Plant response rating, Oat, Wild” value (oat, wild [6]; 125 g ai/ha) was 60 and the “Plant response rating, Oat, Wild” value (oat, wild [6]; [24]) was 90. For the same compound, the “Ragweed plant response rating” value (ragweed [7]; [25]) was 40, the “Plant response rating, Ragweed” value (ragweed [7]; [26]) was 70 and the “Plant response rating, Blackgrass” value (blackgrass [8]; 125 g ai/ha) was 40. For the same compound, the “Plant response rating, Blackgrass” value (blackgrass [8]; [24]) was 70, the “Plant response rating, Ryegrass, Italian” value (ryegrass, Italian [9]; 125 g ai/ha) was 80 and the “Plant response rating, Ryegrass, Italian” value (ryegrass, Italian [9]; [24]) was 90. The “Plant response rating, Foxtail, Giant” value (foxtail, giant [10]; 125 g ai/ha) was 100, the “Plant response rating, Foxtail, Giant” value (foxtail, giant [10]; [24]) was 100 and the “Foxtail, Giant plant response rating” value (foxtail, giant [11]; [25]) was 90. The “Plant response rating, Foxtail, Giant” value (foxtail, giant [11]; [26]) was 90, the “Plant response rating, Soybean” value (soybean [12]; 125 g ai/ha) was 100 and the “Plant response rating, Soybean” value (soybean [12]; [24]) was 100. The “Plant response rating, Ducksalad” value (ducksalad) was 65, the “Corn plant response rating” value (corn [13]; [25]) was 90 and the “Plant response rating, Corn” value (corn [13]; [26]) was 90. For the same compound, the “Plant response rating, Ragweed” value (ragweed [14]; 125 g ai/ha) was 30, the “Plant response rating, Ragweed” value (ragweed [14]; [24]) was 90 and the “Galium plant response rating” value (galium; [25]) was 100. For the same compound, the “Plant response rating, Galium” value (galium; [26]) was 100, the “Kochia plant response rating” value (kochia [15]; [25]) was 90 and the “Plant response rating, Kochia” value (kochia [15]; [26]) was 90. The “Plant response rating, Sedge, Umbrella” value (sedge, umbrella) was 98, the “Plant response rating, Wheat” value (wheat [16]; 125 g ai/ha) was 90 and the “Plant response rating, Wheat” value (wheat [16]; [24]) was 50. The “Ryegrass, Italian plant response rating” value (ryegrass, Italian [17]; [25]) was 50, the “Plant response rating, Ryegrass, Italian” value (ryegrass, Italian [17]; [26]) was 80 and the “Oat, Wild plant response rating” value (oat, wild [18]; [25]) was 10. For the same compound, the “Plant response rating, Oat, Wild” value (oat, wild [18]; [26]) was 70, the “Plant response rating, Barnyardgrass” value (barnyardgrass [19]; 125 g ai/ha) was 90 and the “Plant response rating, Barnyardgrass” value (barnyardgrass [19]; 500 g ai/ha) was 100. The “Wheat plant response rating” value (wheat [20]; [25]) was 30, the “Plant response rating, Wheat” value (wheat [20]; [26]) was 40 and the “Horseweed plant response rating” value (horseweed; [25]) was 20. The “Plant response rating, Horseweed” value (horseweed; [26]) was 50, the “Plant response rating, Barnyardgrass” value (barnyardgrass [21]) was 40 and the “Plant response rating, Rice” value (rice) was 0. The “Blackgrass plant response rating” value (blackgrass [22]; [25]) was 80, the “Plant response rating, Blackgrass” value (blackgrass [22]; [26]) was 90 and the “Barnyardgrass plant response rating” value (barnyardgrass [23]; [25]) was 50. For the same compound, the “Plant response rating, Barnyardgrass” value (barnyardgrass [23]; [26]) was 90.
